# Laboratory results taken from patent US20240239775A1, “FXR REGULATOR, PREPARATION METHOD THEREFOR, PHARMACEUTICAL COMPOSITION THEREOF AND USE THEREOF” (QINGDAO RUIJI MEDICAL TECHNOLOGY CO., LTD., priority 2021, published 2024).
# How the values were obtained:
# [1] = Cell proliferation inhibition (cytotoxicity) by MTT assay, HEK293A; assay type: cell-based; conditions: human, HEK293A cells, 48 hours after administration, average of three independent repeated experiments
# Experimental: The human embryonic kidney cell line HEK293A was subcultured in a medium containing penicillin (final concentration: 100 U/mL), streptomycin (final concentration: 100 μg/mL) and 10% FBS, in a humidified atmosphere of 95% air and 5% carbon dioxide at a constant temperature of 37° C. When the cells were 90% confluent, the old culture medium was discarded and the cells were washed twice with 2 mL of PBS. After the PBS was discarded, 2 mL of 0.25% trypsin-0.25% EDTA mixed digestion solution was added. When it was observed under a microscope that the cells became round, 2 mL of complete culture medium was added quickly to stop the digestion. The cell solution was pipetted gently to collect cells. The cells were centrifuged at 800 rpm, 4° C. for 5 min, the supernatant was discarded, the cells were resuspended in complete culture medium and cultured in bottles, and the medium was changed every other day.
# (§1) The cell proliferation inhibition ability of compounds was tested by MTT assay. HepG2 and HEK293 cells were inoculated in a 96-well plate at a density of 30%. After incubation for 18 h to allow the cells to adhere, the original culture medium was removed, a given concentration of the compound to be tested was added to each well, and an equal amount of DMSO was added to the control group. Three replicate wells were set up for each compound. 48 hours after administration, cell viability was tested by MTT assay. The blank group was the wells where no cells were added, and then its OD value was read at 490 nm with a microplate reader. Calculation formula for cell viability: cell viability (%)=(ODto be tested−ODblank)/(ODcontrol−ODblank)×100.
# [2] = target: T1, FXR (Homo sapiens, UniProt Q96RI1); assay: FXR antagonist screening by TR-FRET (LanthaScreen TR-FRET FXR co-activation assay kit); assay type: biochemical; conditions: Table 1.1, FXR antagonistic activity; TR-FRET with CDCA; geometric means of at least two independent runs
# T1 construct: 5 μL of 20 nM FXR-LBD Complete Coregulator buffer G; purchased ThermoFisher PV4833
# T1 sequence (Q96RI1 262-486 limits assumed): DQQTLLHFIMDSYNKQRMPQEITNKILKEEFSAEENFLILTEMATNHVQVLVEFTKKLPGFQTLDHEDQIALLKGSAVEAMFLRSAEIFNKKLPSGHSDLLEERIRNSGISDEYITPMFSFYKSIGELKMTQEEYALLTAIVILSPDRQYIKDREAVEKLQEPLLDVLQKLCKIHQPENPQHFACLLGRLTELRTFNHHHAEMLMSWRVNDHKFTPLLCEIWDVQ
# Method in brief: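 FXR-LBD (20 nM working solution) mixed with compound, CDCA (200 μM working solution) as agonist, Fluorescein-SRC2-2 and Tb-anti-GST antibody in Coregulator buffer G; 10 h at room temperature. Coactivator recruitment read by TR-FRET, triplicate wells.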
# [3] = Cell proliferation inhibition (cytotoxicity) by MTT assay, HepG2; assay type: cell-based; conditions: human, HepG2 cells, 48 hours after administration, average of three independent repeated experiments
# Experimental: The human liver cancer cell line HepG2 was subcultured in a DMEM medium containing penicillin (final concentration: 100 U/mL), streptomycin (final concentration: 100 μg/mL) and 10% FBS under the same conditions as those in the subculture of HEK293A.
# as §1
# [4] = test system: HepG2 cells; assay: Testing of TC/TG in HepG2 cells incubated with FFA (oleic acid and palmitate); assay type: cell-based, human; conditions: 20 μM compound, 0.5 mmol/L FFA, 24 h; for reduction of the increase in TG level of HepG2 cell induced by oleic acid and palmitate: FIG. 1A; for reduction of the increase in TC level of HepG2 cell induced by oleic acid and palmitate: FIG. 1B
# Experimental: Cell TC/TG was tested using Nanjing Jiancheng TG test kit and TC test kit. HepG2 cells were incubated with 0.5 mmol/L FFA (oleic acid and palmitate mixed at a ratio of 2:1) and a solvent or different concentrations (20 μM, 40 μM, 80 μM) of compounds for 24 h. The culture medium was discarded and the cells were washed once with 0.01 M PBS (pH 7.4). The cells were scraped off with a cell scraper. 2-5 mL of 0.01 M PBS (pH 7.4) was then added. The cell suspension was collected and then centrifuged at 1000×g, 4° C. for 10 min. According to the ratio of 10^6 cells/300-500 μL of homogenization medium, isopropyl alcohol was added for mechanical homogenization, such that the cells were thoroughly disrupted until there was no obvious cell precipitation. The cell solution was centrifuged at 10000×g, 4° C. for 10 min. The supernatant was taken and placed on ice for testing. 2.5 μL of distilled water, standard products or samples were well mixed with […] respectively. After incubation at 37° C. for 10 min, the absorbance value of each well was tested with a microplate reader at 510 nm. Calculation formula for TC/TG concentration: sample concentration (mmol/g protein)=(ODsample−ODblank)/(ODstandard−ODblank)×standard product concentration (mmol/L)/protein concentration (g protein/L).
# Preparation of protein standard: a. 1.2 mL of standard protein solution was added to a tube of protein standard (30 mg BSA), and a 25 mg/mL standard protein solution was obtained after the protein standard was thoroughly dissolved. b. An appropriate amount of 25 mg/mL protein standard was diluted to the final concentration of 0.5 mg/mL. Preparation of BCA working solution: according to the number of samples, reagent A for the BCA working solution and reagent B for BCA working solution (v/v: 50:1) were well mixed to prepare an appropriate amount of BCA working solution. Determination of protein concentration: a. 0, 1, 2, 4, 8, 12, 16, and 20 μL of the protein standard were respectively added into the standard wells of the 96-well plate, and the diluted standard solution was then added to make up to 20 μL, which is equivalent to obtaining standard concentrations of 0, 0.025, 0.05, 0.1, 0.2, 0.3, 0.4, and 0.5 mg/mL, respectively. b. An appropriate volume of sample was added to the sample wells of the 96-well plate. If the sample is less than 20 μL, the diluted standard solution should be added to make up to 20 μL. c. […] was added to each well and the well plate was set still at 37° C. for 20-30 min. d. The absorbance at A562 nm was determined with a microplate reader. e. The protein concentrations of the samples were calculated according to the standard curves and the sample volumes used.
SMILES,melting point,CC50 at 48 h [1],IC50 [2],CC50 at 48 h [3],reduction of the increase in TG level of HepG2 cell induced by oleic acid and palmitate [4],reduction of the increase in TC level of HepG2 cell induced by oleic acid and palmitate [4]
"Cc1c(C(=O)O)oc2ccc(S(=O)(=O)N(CCc3ccccc3)Cc3ccccc3N3CCN(C(=O)c4ccccc4)CC3)cc12 [Example F27-S105, 3-methyl-5-(N-(2-(4-benzoylpiperazin-1-yl)benzyl)-N-phenethylsulfamoyl)benzofuran-2-carboxylic acid]",163 to 164 °C,> 160 µM,0.1 to 10 µM,> 160 µM,–,–
C/C=C1\C(=O)C[C@H]2[C@@H]3CCC4=CC(=O)CC[C@]4(C)[C@H]3CC[C@]12C [Z-GS],–,–,–,–,significantly reduce,significantly reduce
"Cc1c(C(=O)O)oc2ccc(S(=O)(=O)N(CCc3ccccc3)c3ccc(Cc4ccccc4)cc3)cc12 [Example F27-S11, 3-methyl-5-(N-(4-benzylphenyl)-N-phenethylsulfamoyl)benzofuran-2-carboxylic acid]",301 to 302 °C,> 160 µM,0.1 to 10 µM,> 160 µM,–,–
"Cc1c(C(=O)O)oc2ccc(S(=O)(=O)N(CCc3ccccc3)c3ccc(Oc4ccccc4)cc3)cc12 [Example F27-S12, 3-methyl-5-(N-(4-phenoxyphenyl)-N-phenethylsulfamoyl)benzofuran-2-carboxylic acid]",–,> 160 µM,0.1 to 10 µM,> 160 µM,–,–
"Cc1ccc(C)c(OCCCC(C)(C)C(=O)NCC(=O)c2ccc(O)cc2)c1 [SIPI-7623, 5-(2,5-dimethylphenoxy)-N-(2-(4-hydroxyphenyl)-2-oxoethyl)-2,2-dimethylpentanamide]",–,–,–,–,significantly reduce,significantly reduce
"CC(=O)C1=CC[C@H]2[C@@H]3CC=C4C[C@@H](O)CC[C@]4(C)[C@H]3CC[C@]12C [Centatin, 1-((3S, 8R, 9S, 10R, 135, 14S)-3-hydroxy-10,13-dimethyl-2,3,4,7,8,9,10,11,12,13,14,15-dodecahydro-1H-cyclopenta[a]phenanthren-17-yl)ethan-1-one]",–,–,–,–,significantly reduce,significantly reduce
"Cc1c(C(=O)O)oc2ccc(S(=O)(=O)N(CCc3ccccc3)c3ccc(N4CCN(C(=O)c5ccccc5)CC4)cc3)cc12 [Example F27-S69, 3-methyl-5-(N-(4-(4-benzoylpiperazin-1-yl)phenyl)-N-phenethylsulfamoyl)benzofuran-2-carboxylic acid]",> 380 °C (dec.),–,10 to 50 µM,–,–,–
"Cc1c(C(=O)O)oc2ccc(S(=O)(=O)N(CCc3ccccc3)Cc3cccc(Cl)c3)cc12 [Example F27-S21, 3-methyl-5-(N-(3-chlorobenzyl)-N-phenethylsulfamoyl)benzofuran-2-carboxylic acid]",> 380 °C (dec.),–,10 to 50 µM,–,–,–
"Cc1c(C(=O)O)oc2ccc(S(=O)(=O)N(CCc3ccccc3)Cc3ccc(SC(F)(F)F)cc3)cc12 [Example F27-S35, 3-methyl-5-(N-(4-(trifluoromethylthio)benzyl)-N-phenethylsulfamoyl)benzofuran-2-carboxylic acid]",165 to 166 °C,–,10 to 50 µM,–,–,–
"Cc1c(C(=O)O)oc2ccc(S(=O)(=O)N(CCc3ccccc3)Cc3cccc(-c4ccccc4)c3)cc12 [Example F27-S26, 3-methyl-5-(N-([1,1′-biphenyl]-3-ylmethyl)-N-phenethylsulfamoyl)benzofuran-2-carboxylic acid]",> 380 °C (dec.),–,10 to 50 µM,–,–,–
"Cc1c(C(=O)O)oc2ccc(S(=O)(=O)N(CCc3ccccc3)Cc3ccccc3N3CCN(Cc4ccccc4)CC3)cc12 [Example F27-S104, 3-methyl-5-(N-(2-(4-benzylpiperazin-1-yl)benzyl)-N-phenethylsulfamoyl)benzofuran-2-carboxylic acid]",154 to 155 °C,–,50 to 100 µM,–,–,–
"CC(=O)c1ccc(CN(CCc2ccccc2)S(=O)(=O)c2ccc3oc(C(=O)O)c(C)c3c2)cc1 [Example F27-S38, 3-methyl-5-(N-(4-acetylbenzyl)-N-phenethylsulfamoyl)benzofuran-2-carboxylic acid]",> 380 °C (dec.),–,50 to 100 µM,–,–,–
"Cc1c(C(=O)O)oc2ccc(S(=O)(=O)N(CCc3ccccc3)c3ccc(N4CCN(Cc5ccccc5)CC4)cc3)cc12 [Example F27-S70, 3-methyl-5-(N-(4-(4-benzylpiperazin-1-yl)phenyl)-N-phenethylsulfamoyl)benzofuran-2-carboxylic acid]",> 380 °C (dec.),–,10 to 50 µM,–,–,–
"Cc1c(C(=O)O)oc2ccc(S(=O)(=O)N(CCc3ccccc3)Cc3c(F)cc(Cl)cc3F)cc12 [Example F27-S62, 3-methyl-5-(N-(2,6-difluoro-4-chlorobenzyl)-N-phenethylsulfamoyl)benzofuran-2-carboxylic acid]",> 380 °C (dec.),–,10 to 50 µM,–,–,–
"Cc1c(C(=O)O)oc2ccc(S(=O)(=O)N(CCc3ccccc3)Cc3ccc(Cl)cc3F)cc12 [Example F27-S52, 3-methyl-5-(N-(2-fluoro-4-chlorobenzyl)-N-phenethylsulfamoyl)benzofuran-2-carboxylic acid]",> 380 °C (dec.),–,10 to 50 µM,–,–,–
"Cc1c(C(=O)O)oc2ccc(S(=O)(=O)N(CCc3ccccc3)Cc3cccc([N+](=O)[O-])c3)cc12 [Example F27-S25, 3-methyl-5-(N-(3-nitrobenzyl)-N-phenethylsulfamoyl)benzofuran-2-carboxylic acid]",> 380 °C (dec.),–,10 to 50 µM,–,–,–
"Cc1c(C(=O)O)oc2ccc(S(=O)(=O)N(CCc3ccccc3)Cc3ccc(F)cc3C(F)(F)F)cc12 [Example F27-S57, 3-methyl-5-(N-(2-(trifluoromethyl)-4-fluorobenzyl)-N-phenethylsulfamoyl)benzofuran-2-carboxylic acid]",156 to 157 °C,–,10 to 50 µM,–,–,–
